Measured values from ChEMBL document CHEMBL3988442, “University of Dundee, Small-Polar-MMV Screening Library” (2021).
Where “and” joins values, the source holds several entries; their conditions need not be identical. Equal entries are not always repeated.

Target: T1, Histidine--tRNA ligase (Leishmania infantum, UniProt A4I591)
T1 sequence (A4I591 whole entry): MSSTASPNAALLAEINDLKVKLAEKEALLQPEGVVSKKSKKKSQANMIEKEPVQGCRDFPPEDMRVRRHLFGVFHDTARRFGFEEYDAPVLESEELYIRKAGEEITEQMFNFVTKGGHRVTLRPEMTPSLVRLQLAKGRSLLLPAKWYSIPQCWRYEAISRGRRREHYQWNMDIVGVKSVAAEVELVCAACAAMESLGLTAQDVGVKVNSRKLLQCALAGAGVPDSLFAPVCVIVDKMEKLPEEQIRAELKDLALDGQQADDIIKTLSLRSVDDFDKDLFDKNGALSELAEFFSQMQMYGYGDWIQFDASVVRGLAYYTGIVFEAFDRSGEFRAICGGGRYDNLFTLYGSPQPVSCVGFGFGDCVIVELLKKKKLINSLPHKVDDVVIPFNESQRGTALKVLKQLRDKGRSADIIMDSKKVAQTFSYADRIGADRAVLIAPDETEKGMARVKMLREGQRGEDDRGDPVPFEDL
Test: Leishmania infantum Histidine tRNA synthetase (LdHisRS)
Format: functional

Row | Structure (SMILES) | IC50
1 | CC(c1ccco1)n1cc(-c2cc(CN3CCCC3)cs2)nn1 (stereo not given) | 55.6 µM and 80.9 µM
2 | COc1ccccc1N1CCC(CNCc2cccc(OC)c2OC)C1 (stereo not given) | > 100 µM
3 | O=C(c1cncc(N2CCC3(CCCNC3)C2)n1)N1CCCC1 (stereo not given) | > 100 µM
4 | O=C(Nc1c(N2CCCC2)cccc1N1CCCC1)c1ccccn1 | 32.1 µM and 26.8 µM
5 | O=c1c2cnc(N3CCOCC3)nc2ccn1-c1ccccc1 | > 100 µM
6 | CN(C)[C@@H]1C[C@@H](CO)N(C(=O)Nc2ccc(SC(F)(F)F)cc2)C1 | > 100 µM
7 | Cc1cc(C(=O)N2CC[C@@H](N(C)C)[C@@H]2Cc2ccccc2)no1 | > 100 µM
8 | O=c1c2ccccc2nc2n1C(CSc1ccc(Br)cc1)CN2 (stereo not given) | > 100 µM
9 | COCCOc1ccccc1C(=O)N1CCCCC1c1nccs1 (stereo not given) | 51.1 µM and 64.2 µM
10 | Cc1nnc(NCCc2coc(-c3ccc(F)cc3)n2)c(C#N)c1C | > 100 µM and 55.9 µM
11 | CCn1nc2c(cc1=O)CN(c1nc3ccccc3s1)CC2 | 62.6 µM and 73.7 µM
12 | Cc1nnc(NCCc2coc(-c3ccccc3)n2)c(C#N)c1C | 74.7 µM and 55.7 µM
13 | CC(C)NC(=O)C1Cc2nc(-c3ccsc3)sc2N1CC1CC1 (stereo not given) | 33.6 µM and 37.3 µM
14 | COc1ccc(NC(=O)C2CCCO2)cc1OCc1cccnc1 (stereo not given) | > 100 µM and 72.6 µM
15 | CCn1nnc2c1C(COCC(=O)N(C)C)CN(Cc1ccco1)C2 (stereo not given) | > 100 µM
16 | CC(C)c1nn(C)c(N(C)C)c1CNCc1ccccc1CN(C)C | > 100 µM
17 | O=C(Nc1cccn(Cc2ccccc2)c1=O)c1ccncc1F | 35.7 µM and 31.2 µM
18 | O=C(c1cc(-c2ccco2)nc2c(Cl)cccc12)N1C[C@H]2CNC[C@H]2C1 | 48.1 µM and 51.8 µM
19 | CCN1CC2(CCOCC2)c2cc(NS(=O)(=O)CC)ccc21 | 8.64 µM and 21.4 µM
20 | O=C(c1ccc2[nH]ccc2c1)N1Cc2nc(CN3CCCCC3)oc2C1 | 33.7 µM and 23.5 µM
21 | CC(=O)NCC1CCN(c2cc(C)nc(-c3ccncc3)n2)CC1 | 64 µM and > 100 µM
22 | CC(=O)Cc1c(C)nn(-c2cncc(N)c2)c1C | 33.4 µM and 30.1 µM
23 | Cc1cn2nc(N(C)C3CCCN(c4cccnn4)C3)sc2n1 (stereo not given) | 29.6 µM and 43.5 µM
24 | CCOc1ccc2nc(CN3CCC(CN)C3)ccc2c1 (stereo not given) | 33.2 µM and 46.9 µM
25 | NC(=O)C1=NC2=NS(=O)(=O)c3ccccc3N2N1Cc1ccc(Br)cc1 | 41 µM and 69.9 µM

Row | Structure (SMILES) | IC50
26 | CCC(=O)Nc1cc(Br)cn(C)c1=O | 7.66 µM and 7.91 µM
27 | Nc1nnc(SCC(=O)c2cc3c(cc2Cl)NC(=O)C3)s1 | > 100 µM and 77.9 µM
28 | CCc1ocnc1C(=O)N1CCN(c2ccc3ccccc3c2)CC1 | 57.4 µM and 54 µM
29 | NC(=O)c1ccc(N2CCCCC2)c(NC(=O)c2ccc(F)cc2Cl)c1 | 71.9 µM and 52.6 µM
30 | Cc1nccn1-c1cccc(C2CCCN(C3CCCCC3)C2)n1 (stereo not given) | 36.7 µM and 33.6 µM
31 | COc1cccc2c1OCCCN(c1nc(N)nc3c1CCNC3)C2 | 28.2 µM and 32.1 µM
32 | COCCn1cc(-c2cc(C(=O)N3CCCC3)c3ccccn23)nc1C | > 100 µM
33 | COCCN1CCC(C)(c2cc(O)[nH]n2)CC1 | 71.4 µM and 66.4 µM
34 | CCOc1nnc(CNC2CCCN(c3ccc(C)nn3)C2)s1 (stereo not given) | > 100 µM and 94.7 µM
35 | c1cc(-c2ccc3c(c2)C2(CC3)CCN(c3nncs3)CC2)ccn1 | 29.8 µM and 26.8 µM
36 | Cc1csc(N2CCN(C(=O)CCC(=O)c3ccc(C)s3)CC2)n1 | > 100 µM
37 | COc1ccc(C2SC(C)=Nc3c2c(=O)[nH]n3C2CCCC2)cc1O (stereo not given) | > 100 µM
38 | Cc1nnc(SCC(=O)c2cc3c(cc2Cl)NC(=O)C3)o1 | 42.4 µM and 52.8 µM
39 | Cn1ccnc1-c1cn(CCCc2csc(N)n2)nn1 | > 100 µM
40 | CC(C)c1cc(N2CCC(C(C)N3CCCC3)CC2)n2nccc2n1 (stereo not given) | 34.3 µM and 31.4 µM
41 | Cc1ncc2c(n1)CN(Cc1nnc(Cc3ccccc3)o1)CC2 | 48.1 µM and 49.9 µM
42 | Cc1ccc(C(=O)N2CCN(C(=O)NC(C)Cn3ccnc3)CC2)o1 (stereo not given) | > 100 µM
43 | O=C(C1=NN(Cc2ccccc2)c2ccccc2S1(=O)=O)N1CCCC1 | 40.6 µM and 39.5 µM
44 | O=C(CCNCc1cccc(O)c1)N1CCc2sccc2C1 | 17.7 µM and 23 µM
45 | c1ccc(Cn2cc(CNCC3CCCN3c3cccnn3)cn2)cc1 (stereo not given) | > 100 µM
46 | Cc1cc(CNc2ccc3nc(C)sc3c2)no1 | > 100 µM
47 | CCC1CN(CCC(=O)N(C)C)CCN1CCOC (stereo not given) | > 100 µM
48 | CCCN1CCC(Cc2nn3c(C(C)C)nnc3s2)CC1 | > 100 µM
49 | CC1=Nc2c(c(=O)[nH]n2C(C)C)C(c2ccc3c(c2)n(C)c(=O)n3C)S1 (stereo not given) | > 100 µM
50 | CCCc1nc(CN2CCOC(CNc3cccnn3)C2)cs1 (stereo not given) | 45.1 µM and 33.5 µM

Row | Structure (SMILES) | IC50
51 | FC(F)(F)c1ccc(-c2cc(NC3CCNCC3)nc3[nH]ccc23)nc1 | 29.3 µM and 30.2 µM
52 | CCCn1nc2c(cc1=O)CN(Cc1ccccn1)CC2 | 20.9 µM and 17.8 µM
53 | CC(C(=O)Nc1ccc(N2CCCC2)nc1)n1cncn1 (stereo not given) | > 100 µM
54 | COc1ccc(Oc2nccc3occc23)cc1CN1CCCC1 | 66.1 µM and 62.2 µM
55 | Cn1ccnc1-c1cn(CCc2nnc(N)s2)nn1 | > 100 µM
56 | Cc1nc(CN(C)C2CCN(Cc3ccc4ccccc4n3)C2)no1 (stereo not given) | 59.9 µM and 39.8 µM
57 | O=C(C1CCCCC1)N1C[C@@H]2CCN(c3cnccn3)C[C@@H]2C1 | 66.8 µM and 70.3 µM
58 | COc1cc(CCO)c(OC)c2c1OCO2 | > 100 µM
59 | Cc1nccn1-c1cccc(C2CCCN(C3CCCC3)C2)n1 (stereo not given) | 32.3 µM and 35.9 µM
60 | CCOc1ccc(N(CCC#N)C(=O)c2ccnc(SC)c2)cc1 | > 100 µM
61 | CC(C)c1ccc(C(=O)O)cc1S(=O)(=O)Nc1ccc(=O)n(C)c1 | 12.5 µM and 14.9 µM
62 | CCN1C(=O)C(C#N)=C(C)/C(=C/C2=Cc3ccccc3OC2)C1=O | 1.68 µM and 1.77 µM and 1.36 µM and 1.79 µM
63 | O=C(NCc1ccco1)[C@@H]1CC[C@@H]2[C@@H](CCN2Cc2ccc(F)cc2)O1 | 59.4 µM and 27.4 µM
64 | COCCN1CCCc2sc(C(=O)NCC3CCCO3)nc21 (stereo not given) | 22.4 µM and 24.1 µM
65 | O=C1CC(c2ccc(C(=O)O)cc2)c2ncn(-c3ccccc3)c2N1 (stereo not given) | 17.3 µM and 20.1 µM
66 | CCn1nnc2c1C(COC)CN(Cc1ccco1)C2 (stereo not given) | > 100 µM
67 | CNc1[nH]nc(N)c1NC(=O)c1ccccc1 | 12.7 µM and 14.3 µM
68 | OC1CCCN(Cc2c(-c3ccco3)[nH]c3ncccc23)C1 (stereo not given) | 58.7 µM and 38.5 µM
69 | COc1ccc2c(c1)c(C(=O)Nc1nnn[nH]1)cn2C(C)C | > 100 µM
70 | Cc1cc(O)ncc1NS(=O)(=O)c1cccc(F)c1F | 45.7 µM and 49.5 µM
71 | CCc1cc(N2CCC(F)(F)CC2)n2nc(C)c(C)c2n1 | > 100 µM
72 | CN1CCN(c2cccc(NC(=O)NCc3csc(N(C)C)n3)c2)C1=O | 38.9 µM and 48.5 µM
73 | NC(=O)CN1CCN(CC2CC2)c2ccccc21 | > 100 µM
74 | Cc1ncc2c(n1)CN(Cc1nnc(-c3occc3C)o1)CC2 | 64.7 µM and 82.6 µM
75 | c1cc(-c2ccc3c(c2)CCC32CCN(c3nncs3)CC2)co1 | 12.5 µM and 10.1 µM

Row | Structure (SMILES) | IC50
76 | CCC(C#N)NC(=O)CCCOc1cccc(C(C)=O)c1 (stereo not given) | > 100 µM
77 | Cc1cc(C(=O)Nc2cccn(Cc3ccc(F)cc3)c2=O)on1 | 12.9 µM and 11.3 µM
78 | Cc1nonc1CN(C)c1nc(-c2cccnc2)nc2c1CCNC2 | 15.1 µM and 18.7 µM
79 | Cc1ccn(C)c(=O)c1NC(=O)N(C)Cc1cccc(OC(C)C)c1 | 18.1 µM and 21.6 µM
80 | c1ccc(-n2ncc(CNCC3CCCN3c3cccnn3)n2)cc1 (stereo not given) | 22.3 µM and 27.2 µM
81 | CCCn1nc2c(cc1=O)CN(Cc1cc(C)no1)CC2 | 24.8 µM and 27.4 µM
82 | COc1cccc(N2CCN(Cc3cccc(CCN)c3)CC2=O)c1 | 23.3 µM and 28.2 µM
83 | Cc1noc(C)c1CN1CCc2nn(C(C)C)c(=O)cc2C1 | 86 µM and > 100 µM
84 | COc1ccc(C(C)=O)cc1CN1CCn2cccc2C1C (stereo not given) | 31.8 µM and 50.6 µM
85 | Cc1cccc2c1nc(COCC(=O)O)n2-c1cnc(N)cn1 | > 100 µM
86 | COc1ccc(CCN)cc1-c1ccc(C(N)=O)cc1 | 48.8 µM and 28 µM
87 | Cc1cc(N2CCC(Cc3ccccc3)CC2)nc(-c2ccncc2)n1 | 25 µM and 18.4 µM
88 | CC(C)[C@H](NS(C)(=O)=O)C(=O)NCc1cc(-c2ccco2)n[nH]1 | 87.9 µM and 82 µM
89 | c1ccc(-c2cnc(CNC3CCCN(c4cccnn4)C3)o2)cc1 (stereo not given) | 43.5 µM and 30.5 µM
90 | O=C1CC(c2ccc(C(=O)O)cc2)c2ncn(-c3ccccc3F)c2N1 (stereo not given) | 19.1 µM and 25.2 µM
91 | CC(C)C(C)NC(=O)Nc1cccn(C)c1=O (stereo not given) | 65.4 µM and 53.4 µM
92 | Cc1cc(NC(=O)CN2CCc3nn(C)c(=O)cc3C2)no1 | > 100 µM
93 | O=C(c1ccc2[nH]ccc2c1)N1CCn2cnc(COCC3CC3)c2C1 | 38.4 µM and 25.7 µM
94 | O=C(c1cnccn1)N1C[C@@H]2[C@@H](C1)OCC(=O)N2CC1CCCC1 | > 100 µM
95 | CCCn1nc2c(cc1=O)CN(CC1CCCCO1)CC2 (stereo not given) | 33.8 µM and 42.3 µM
96 | COc1cccn(CC(=O)N(C)CCOc2cc(C)cc(C)c2)c1=O | 3.92 µM and 3.35 µM
97 | COc1cccc(CN2CCN(CC(C)C)C(=O)C2C)c1O (stereo not given) | 6.15 µM and 5.67 µM
98 | Cn1cccc(NC(=O)N2CCC(CSc3ccccc3)C2)c1=O (stereo not given) | 15.1 µM and 14.9 µM
99 | Fc1ccc(N2CCC3(CC2)CC(OCc2cccnc2)CO3)cc1 (stereo not given) | 23.3 µM and 15.8 µM
100 | O=C(NCC1CC1)c1cc2c(s1)CCN2c1ncccn1 | 63 µM and 54 µM
